# Experimental data: patent US7557085B2, “Metabolic-based methods for modulating gene expression” (Wisconsin Alumni Research Foundation, priority 2005, dated 2009)
# Assays:
# [1] = tested on: actin; test: QRT-PCR of hippocampal tissue from kindled rats, actin; format: in vivo, rat; conditions: hippocampus, 2-DG treatment versus control
# Description: Values plotted are BDNF or TrkB expression over Actin using rat hippocampal cDNA from an untreated rat for a standard curve. Specifically, mRNA was extracted from hippocampus tissue from rats treated with 2-DG or untreated control rats subjected to kindling stimulation to mimic epilepsy. […] The levels of actin mRNA were not affected by 2-DG treatment. Importantly, the differences in expression of BDNF or TrkB in the absence or presence of 2DG were present after 5 ADs in association with a large difference in AD threshold between 2DG-treated and control rats (FIG. 3 lanes 5 versus 6 and 7 versus 8).
# [2] = tested on: NRSF binding site (NSRE) from the mouse homolog of the human snail promoter; test: SV40 luciferase reporter with snail promoter NRSE in HEK 293 cells; format: cell-based; conditions: HEK 293 cells grown overnight in the presence of glucose
# Description: FIG. 12 is a graph showing repression of expression of a reporter gene using an SV40 promoter with or without the NRSF binding site from the human snail promoter. HG=glucose; Pyr=pyruvate; 2-DG=2-deoxyglucose.
# To investigate whether the effects of 2-DG on gene expression is evidenced in genes known to be involved in metastatic growth, the NRSF binding site (NSRE) from the mouse homolog of the human snail promoter (GenBank Accession No. NM_005985), comprising a 440 bp nucleotide sequence
# identified as SEQ ID NO. 6 was introduced into the SV40 promoter in the plasmid vector pGL3 (available from Promega, Madison, Wis.) at the BglII and Acc65I restriction enzyme recognition sites). In pGL3. a luciferase reporter gene is under the transcriptional control of the SV40 promoter, and in the construct described herein transcription from the SV40 promoter is regulated by NRSE/NRSF. Reporter plasmids with and without the NSRE insert were transfected into HEK 293 cells (ATCC Accession No. CRL 1573 ATCC, Manassas, Va.) and the cells grown overnight in the presence of glucose with and without pyruvate, 2-DG or both pyruvate and 2DG. […]
# [3] = tested on: CHRM4; test: ChIP in JTC-19 cells grown with 2-DG or glucose, CHRM4; format: cell-based, rat
# Description: (§1) To determine whether 2-DG mediated suppression of BDNF levels was associated with a decreased level of histone H3 Lysine^9 acetylation, hippocampii from 2-DG treated or control rats were crosslinked with 1% formaldehyde and subjected to chromatin immunoprecipitation assays (ChIPs), performed as in Roopra et al.(2004, Mol Cell 14: 727-38) with an antibody specific to acetylated H3-K9. The graphs shown in FIGS. 10A through 10C show the results of experiments in which the amount (in ng) of DNA associated with nucleosomes comprising modified or unmodified H3 histone proteins was detected for an endogenous, NRSE/NRSF-regulated gene (CHRM4) in JTC-19 cells grown in the presence of 2-DG or glucose. […] However, the amount of CtBP recruited to CHRM4, the NRSF target gene, increased 5-fold in the presence of 2-DG.
# [4] = tested on: BDNF NRSE; test: ChIP on hippocampi of rats administered 2-DG or saline, BDNF NRSE; format: in vivo, rat
# Description: FIG. 10D is a graph showing the results of CHiP assays of ˜20 kB surrounding the NRSE element in the BDNF gene. The data is plotted as the quantity of DNA specifically precipitated (pg).
# FIG. 10E is a graph showing the results of CHiP assays wherein chromatin precipitated with anti-H3K9-dimethyl or sham antibody and primers flanking the BDNF NRSE. The data is plotted as the quantity of DNA specifically precipitated (pg).
# FIG. 10F is a graph showing the results of CHiP assays wherein chromatin was precipitated with anti-NRSF or sham antibody and primers flanking the BDNF or actin promoter. The data is plotted as the quantity of DNA specifically precipitated (pg).
# FIG. 10I is a graph of CHIP assays performed on hippocampi from rats administered 2-DG or saline for 2 weeks and using a cocktail of anti-CtBP1 and anti-CtBP2 antibody or sham antibody and primers flanking the BDNF NRSE or actin promoter. Data is plotted as quantity of DNA specifically precipitated in picograms.
# as §1
# ChIP assays also were performed over 20 Kb spanning the BDNF NRSE to detect deacetylated histone H3K9. In these experiments, hippocampi from rats administered 2-DG or saline for 2 weeks were subjected to CHIP with anti-H3K9-acetyl (obtained from BD-Pharmigen) or sham antibody and primers flanking BDNF NRSE or sequence 2, 5 or 10 Kb up- or downstream from the BDNF NRSE element.
# Alternatively, when chromatin from the above experiments was precipitated with anti-NRSF or sham antibody and primers flanking the BDNF NRSE or actin promoter, specific binding was found at the NSRE element and not associated with the actin promoter.
# The above results predicted that CtBP would be present at the BDNF NRSF binding site in rat hippocampi and that occupancy at this site should be augmented in the presence of 2-DG. To test this prediction, ChIP assays were performed using anti-CtBP antibody on chromatin isolated from 2DG-treated rats as above. Hippocampi from rats administered 2-DG or saline for 2 weeks were subjected to ChIP with a cocktail of anti-CtBP1 and anti-CtBP2 antibody or sham antibody and primers flanking the BDNF NRSE or actin promoter. […] CtBP was not detected at the actin promoter without regard to the glycolytic state of the animal, as expected for a gene not under NRSF regulatory control.
# [5] = tested on: hippocampal gene expression; test: microarray hybridization of rat hippocampus mRNA (Affymetrix Rat Array); format: in vivo; conditions: of 35,000 genes comprising the microarray
# Description: In view of the results with BDNF and TrkB, hippocampal gene expression changes in rats treated with and without 2-DG were assessed by hybridization using microarrays (Affymetrix Rat Array (35,000 genes represented), Affymetrix, Santa Clara, Calif.). Hybridizations were performed according to the manufacturer's instructions using mRNA isolated from rat hippocampus from rats following dietary restriction or treatment with drug (2-DG). […] Genes of interest in disease states detected in these experiments include but are not limited to snail (NM_005985), MDR3/MRP3 (GenBank Accession No. M23234), MTA1 (NM_004689), DCC (NM_005215), Netrin (U75586), and β-catenin (X87838)(metastasis); BDNF (NM_170731) and TrkB (NM_006180) (neurological disorders) and atrial natriuretic peptide (ANP; NM_000907)(cardiac hypertrophy/myocardial infarction).
compound,measurement,setting,value
"O=CC[C@@H](O)[C@H](O)[C@H](O)CO [2-DG, 2-deoxy-D-glucose]",levels of actin mRNA,[1],not affected
same,reporter gene expression (ratio of SV40-driven to NRSE/SV40 luciferase expression),[2],decreased
same,H3-Lys9 acetylation levels at the CHRM4 promoter,[3]; in the presence of 2-DG,reduced
same,amount of mono- and di-methyl K9,[3]; in the presence of 2-DG,increased
same,amount of unmodified (de-acetylated) H3K9,[3]; in the presence of 2-DG,increased
same,increase of amount of CtBP recruited to CHRM4,[3]; in the presence of 2-DG,5 fold
same,"amount of NRSF, G9a and SIN3 at NRSF target genes",[3]; presence or absence of 2-DG,does not change
same,H3K9 methylation status at the BDNF NRSE,"[4]; anti-H3K9-dimethyl antibody, rat hippocampi",robust increase
same,NRSF binding to the BDNF NRSE,"[4]; anti-NRSF antibody, rat hippocampi",not affected
same,associated histone acetylation levels for BDNF DNA,"[4]; drug treatment, rat hippocampus",lowered
same,CtBP occupancy at the BDNF NRSE,"[4]; rats administered 2-DG or saline for 2 weeks, anti-CtBP1 and anti-CtBP2 cocktail",significantly increased
same,H3K9 acetylation at the NRSE element compared to controls,"[4]; rats administered 2-DG or saline for 2 weeks, only amplicon over 20 Kb to change",marked reduction
same,number of genes down-regulated by drug treatment,[5],349
same,number of genes transcriptionally upregulated by drug treatment,[5],241
